From PMC9741652, “CRL2^ZER1/ZYG11B recognizes small N-terminal residues for degradation” (Nature Communications, 2022)
Blank lines part the entries; values can stand above or below the substance they belong to. No end group written: not given here.

What was measured:
ZER1 (residues 469–766) = target: T1, ZER1 (residues 469–766) (Homo sapiens, UniProt Q7Z7L7); experiment: ITC of peptides titrated into ZER1; format: binding; conditions: wild-type ZER1 residues 469–766
T1 construct: made in house; host or cells: E. coli BL21 (DE3)
Text: (§1) To further investigate the binding specificity of ZER1 and ZYG11B, we synthesized a set of eight-residue peptides (sequence: XFLHVGQD, X = any free Nt-residue), and carried out isothermal titration calorimetry (ITC) assays to quantify their binding affinities for ZER1 and ZYG11B. […] The rest of Nt-residues were disallowed for the binding to both ZER1 and ZYG11B (Fig. 1e, and Supplementary Fig. 1c–f).
(§2) ZYG11B (residues 490–728) bearing an N-terminal SELF generated by a modified pET28-MKH8SUMO (Addgene Plasmid #79526) vector and ZER1 (residues 469–766) bearing an N-terminal MEEL sequence generated by pNIC-CH (Addgene Plasmid #26117) vector were used to perform isothermal titration calorimetry (ITC) assays, as previously described. Proteins (concentration 50–70 μM) and peptides (concentration 0.5–1.5 mM) solutions were prepared in an ITC buffer consisting of 20 mM Tris-HCl (pH 7.5) and 150 mM NaCl. The ITC measurements were recorded at 16 °C with a MicroCal PEAQ-ITC instrument (Malvern Panalytical). 1.5 μL of each peptide (except for first injection using 0.5 μL peptide) was titrated into a 300 μL cell of the protein with 120 s incubation time between the injections. The reference power was controlled at […]. The acquired data were analyzed using MicroCal PEAQ-ITC Analysis Software version 1.30. Each experiment was repeated at least twice independently with similar results.

[1] = target: T2, ZER1 W552A (residues 469–766) (Homo sapiens, UniProt Q7Z7L7, W552A); experiment: ITC of peptides with mutant ZER1 W552A; conditions: mutant ZER1 residues 469–766, NB = no detectable binding
T2 construct: wild-type (WT) and mutant ZER1 (residues 469–766) titrated with SFLHVGQD peptide; made in house; host or cells: E. coli BL21 (DE3)
Text: (§3) To verify the functional importance of the residues involved in substrate binding, we generated single-point mutants of the binding pocket residues in ZER1 and ZYG11B. […] In addition, mutating the third-residue-interacting N553 into alanine caused a significant reduction in substrate binding (Fig. 3e, and Supplementary Fig. 4a–c).
as §2

[2] = target: T3, ZER1 D556A (residues 469–766) (Homo sapiens, UniProt Q7Z7L7, D556A); experiment: ITC of peptides with mutant ZER1 D556A; format: binding; conditions: mutant ZER1 residues 469–766
T3 construct: wild-type (WT) and mutant ZER1 (residues 469–766) titrated with SFLHVGQD peptide; made in house; host or cells: E. coli BL21 (DE3)
Text: as §3, §2

[3] = target: T4, ZER1 N597A (residues 469–766) (Homo sapiens, UniProt Q7Z7L7, N597A); experiment: ITC of peptides with mutant ZER1 N597A; conditions: mutant ZER1 residues 469–766, NB = no detectable binding
T4 construct: wild-type (WT) and mutant ZER1 (residues 469–766) titrated with SFLHVGQD peptide; made in house; host or cells: E. coli BL21 (DE3)
Text: as §3, §2

[4] = target: T5, ZER1 E600A (residues 469–766) (Homo sapiens, UniProt Q7Z7L7, E600A); experiment: ITC of peptides with mutant ZER1 E600A; format: binding; conditions: mutant ZER1 residues 469–766
T5 construct: wild-type (WT) and mutant ZER1 (residues 469–766) titrated with SFLHVGQD peptide; made in house; host or cells: E. coli BL21 (DE3)
Text: as §3, §2

[5] = target: T6, ZYG11B (residues 490–728) (Homo sapiens, UniProt Q9C0D3); experiment: ITC of peptides titrated into ZYG11B; conditions: ZYG11B residues 490–728, 20 mM Tris-HCl pH 7.5, 150 mM NaCl, 16 °C, repeated at least twice, NB = no detectable binding
T6 construct: ZYG11B (residues 490–728) bearing an N-terminal SELF; 8xHis-SUMO (N, cleaved yes); made in house; host or cells: E. coli BL21 (DE3)
Text: as §1, §2

T6 sequence (Q9C0D3 490-728): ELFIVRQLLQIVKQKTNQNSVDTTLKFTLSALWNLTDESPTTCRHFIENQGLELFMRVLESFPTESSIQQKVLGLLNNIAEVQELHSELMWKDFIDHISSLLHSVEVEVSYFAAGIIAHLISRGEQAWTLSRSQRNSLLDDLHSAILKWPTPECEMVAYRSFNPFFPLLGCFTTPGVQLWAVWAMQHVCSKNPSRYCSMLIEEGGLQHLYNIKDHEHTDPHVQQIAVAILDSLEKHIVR
T3 sequence (Q7Z7L7 469-766 D556A): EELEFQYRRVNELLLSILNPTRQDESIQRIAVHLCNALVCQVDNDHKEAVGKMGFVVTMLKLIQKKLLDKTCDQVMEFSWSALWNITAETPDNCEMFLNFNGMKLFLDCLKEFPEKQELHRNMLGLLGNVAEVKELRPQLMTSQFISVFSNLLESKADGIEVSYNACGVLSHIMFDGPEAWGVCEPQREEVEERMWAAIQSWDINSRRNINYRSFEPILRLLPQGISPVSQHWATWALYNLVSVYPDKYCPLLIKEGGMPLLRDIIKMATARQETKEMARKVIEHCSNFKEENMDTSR
T4 sequence (Q7Z7L7 469-766 N597A): as the sequence (Q7Z7L7 469-766 D556A) above, with A88D, N129A counted along it
T5 sequence (Q7Z7L7 469-766 E600A): as the sequence (Q7Z7L7 469-766 D556A) above, with A88D, E132A counted along it
T2 sequence (Q7Z7L7 469-766 W552A): as the sequence (Q7Z7L7 469-766 D556A) above, with W84A, A88D counted along it
T1 sequence (Q7Z7L7 469-766): as the sequence (Q7Z7L7 469-766 D556A) above, with A88D counted along it

binding to ZER1, in words (ZER1 (residues 469–766)): readily bind
Substance: SGRGKQGGKA [H2A peptide]

Kd [1]: > 100 µM
Kd [2]: > 100 µM
Kd [3]: > 100 µM
Kd [4]: > 100 µM
Substance: SFLHVGQD [SFLHVGQD]

Kd [5]: > 100 µM
Substance: H-VFLHVGQD [VFLHVGQD]
